The assay concerns BRD. In words: BRD reducing activity with added metal ions and inhibitors. The format is biochemical, Micrococcus luteus IFO 13867.
[1] abbreviates: addition level 1 mM, activity without addition = 100%.
Where [2] appears, read: addition level 0.1 mM, activity without addition = 100%.
Setting [3] is: addition level 0.01 mM, activity without addition = 100%.

The values that follow come from patent publication US7033808B2, “Carbonyl reductase, gene thereof and method of using the same” (Kaneka Corporation, priority 2000, dated 2006).

Where two headings read alike, the source gives them in different places.

As for `c1cnc2c(c1)ccc1cccnc12` [1,10-Phenanthroline], the Relative activity under setting [1] was 90%. Regarding `O=C1NC(=O)C(c2ccccc2)(c2ccccc2)N1` [5,5-Diphenylhydantoin], the Relative activity (addition level 0.5 mM, activity without addition = 100%) was 99%. `[Cl-].[Cl-].[Co+2]` [CoCl2] gave a Relative activity of 99%.

In turn, `O=S(=O)([O-])[O-].[Cu+2]` [CuSO4] showed a Relative activity under setting [2] of 6% and a Relative activity under setting [1] of 5%. For the same compound, the “Inhibition of the enzyme” value (result in words) is reported as “inhibited”. `O=C(O)c1cc(SSc2ccc([N+](=O)[O-])c(C(=O)O)c2)ccc1[N+](=O)[O-]` [DTNB] had a Relative activity under setting [3] of 93%.

In turn, `O=C(O)CN(CCN(CC(=O)O)CC(=O)O)CC(=O)O` [EDTA] registered a Relative activity of 88%. Still for that read-out and setting: under `O=C(O)CI` [Iodoacetic acid] stands 89%.

Under setting [1], `O=S(=O)([O-])[O-].[Mg+2]` [MgSO4] returned a Relative activity of 99%. In the case of `[Cl][Mn][Cl]` [MnCl2], the Relative activity under setting [1] turned out to be 89%. On the same count and under the same terms, under `CCN1C(=O)C=CC1=O` [NEM] stands 94%. Under setting [2], `O=C(O)c1cc[c]([Hg][Cl])cc1` [PCMB] registered a Relative activity of 78%. Under setting [1], `O=S(=O)(F)Cc1ccccc1` [PMSF, phenylmethylsulfonyl fluoride] returned a Relative activity of 89%. Compound `O=c1c(O)c(-c2ccc(O)c(O)c2)oc2cc(O)cc(O)c12` [Quercetin] had a Relative activity under setting [3] of 94%. With `O=S(=O)([O-])[O-].[Zn+2]` [ZnSO4], the Relative activity under setting [1] amounted to 99%.
